Reference: patent US8680076B2, “Methods of treatment, improvement and prevention using haloaryl substituted aminopurines” (Signal Pharmaceuticals, LLC, priority 2010, dated 2014)
“Also recorded” adds a separate entry of the source.

Tests used:
[1] = system: c-Jun (JNK) in human skin; experiment: UVB-irradiated human skin, c-Jun IHC (3-way crossover study); type: in vivo; details: for median subjective score of c-Jun: scale 0-4
Description: The inhibitory effect of JNKi-1 on JNK was evaluated by assessing the status of the downstream substrate c-Jun (“cJun”) and phospho-c-Jun (or “p-cJun”) following UV irradiation of human skin.
The study was designed as randomized, double blind, placebo controlled, multiple dose, 3-way crossover study. Fifteen subjects were randomized to one of 3 sequences (5 subjects per sequence) as outlined below (see Table 3). There was a 7-day to 10 day washout period (no more than 14 days) from the last dose of the previous period to the first dose of the next period.
Fifteen patients enrolled, 14 completed the study and were included in the PD and PK analyses; all were healthy Caucasian male volunteers with Fitzpatrick skin type 2. The mean age was […] (20-49 years) and weight was 81 kg (64-96 kg). On the evening of Day-1, patients started fasting (at least an 8-hour fast prior to dosing on Day 1). Subjects received treatment A, B or C in Periods 1 to 3 under fasting conditions in an order based on the randomization scheme. Subjects went through the same procedures (except for the change in treatment) for all 3 periods, with the required washout in between periods. No strenuous activities were permitted during confinement. All efforts were made to keep activities, environment, food, procedures, and schedule between treatment periods identical.
On Day 6, subjects received a 2×MED UV dose to two sites on the buttock. One punch biopsy (approximately 3 mm in diameter by 0.8 mm in depth) was taken from one of the two UV irradiated sites. The punch biopsies were taken at 8 (±5 minutes) hours post UV exposure on Day 6.
Skin specimens from the biopsies was analyzed for phospho c-Jun and total c-Jun using IHC assay. Phospho c-Jun was quantified using a 0-4 subjective grading scales and/or objective scoring using an automated system, i.e. a laser scanning cytometer (LSC), evaluating the integrated intensity of staining measured optically.
Biopsies were analyzed following the procedures described below to evaluate phospho c-Jun and c-Jun expression using IHC assay. The method employed to assess JNK activation was a two antibody IHC assay that employed a primary antibody, directed against the target, and a secondary antibody conjugated with a chromogenic enzyme. Thus, the method was a two-step immunohistochemical assay designed to interrogate the target, c-Jun and phospho c-Jun. Any changes in JNK activity were measurable in the amounts of these target molecules, c-Jun and phospho c-Jun. The secondary antibody-reporter conjugate deposited a red color when incubated with the substrate reaction mix, thus marking the location of the primary antibody target complex. The red color was then recorded with standard bright-field illumination using a Nikon microscope. The microscope images were then photographed and electronic images were scored (blinded) by three independent and trained scorers using the following guidelines. A score of 0 indicated staining of 0-19% of the epithelial keratinocyte nuclei; a score of 1 indicated staining of 20-39% of the epithelial keratinocyte nuclei; a score of 2 indicated staining of 40-59% of the epithelial keratinocyte nuclei; a score of 3 indicated staining of 60-79% of the epithelial keratinocyte nuclei; and a score of 4 indicated staining of 80-100% of the epithelial keratinocyte nuclei. FIG. 21 depicts representative immunostaining for the respective scores.
For each tissue, a count of nuclei in the epithelial layer was obtained. All phospho c-Jun or c-Jun positive nuclei were counted as well as their integral (intensity). A score was calculated for each: score=(p-cJun or cJun positive nuclei×average Intensity)/Total nuclei.

[2] = system: phospho-c-Jun (JNK) in EpiDermFT reconstituted human skin equivalent; experiment: UVB-stimulated JNK activation in EpiDermFT skin model (Western blot); type: cell-based
Description: Two in vitro systems, nHEK and the EpiDermFT™ skin model, were used in this study. The nHEK cells and EpiDermFT™ samples were pretreated with JNKi-1 at concentrations of 0.1, 3, and 10 μM prior to 60 mJ/cm^2 and 135 mJ/cm^2 UVB irradiation, respectively. After UV stimulation, the activities of JNK were measured as levels of phospho-c-Jun via immunoblotting of cell lysates using an anti-phospho-c-Jun S63 antibody. Phospho-Stat3 was also evaluated as a marker of JNK activation.
Samples were cultured in 2 mL of serum-free maintenance media (EFT-200-MM) for 72 hr. After 72 hr, the media was replaced with 2 mL of fresh media containing 0, 0.1, 3, and 10 μM of JNKi-1, respectively). Samples were allowed to soak at 37° C., 5% CO2 for 6 hr, then removed from the media and placed into 2 mL of PBS and irradiated with 135 mJ/cm^2 of UVB. Controls were sham irradiated. Samples were placed back into 2 mL of media containing JNKi-1. Samples were harvested at 30 minutes and 3 hr post UV treatment. Each sample was cut in half; one half was snap frozen in liquid nitrogen, homogenized in lysis buffer, and lysates stored at −80° C. The other half was placed in 10% neutral buffer formalin for 3 hr and transferred to 100% ethanol for processing
cells were pre-incubated with either dimethyl sulfoxide (DMSO) (FIG. 31, lanes 1, 2, and 12 to 15) or JNKi-1 at the indicated concentration (lanes 3 to 11) for 1 hr and then irradiated without (Control, lanes 1 and 2) or with UVB at 60 mJ/cm^2 (lanes 3 to 15). Cells were lysed 30 minutes after UV irradiation and cell lysates were subjected to sodium dodecyl sulfate polyacrylamide gel electrophoresis (SDS-PAGE) before Western blotting with anti-phospho-c-Jun antibody. […]
Western analysis: For Western blot analysis, 20 to 25 μg of total protein were applied to SDS-PAGE gels followed by electrophoresis and blotting. […] The intensity of each band was quantified by the Odyssey 2.1 software and exported into Excel for further analysis. […]

In the case of O[C@H]1CC[C@H](Nc2ncc3nc(Nc4c(F)cc(F)cc4F)n([C@H]4CCOC4)c3n2)CC1 [JNKi-1, 4-((9-((3S)-tetrahydro-3-furanyl)-8-((2,4,6-trifluorophenyl)amino)-9H-purin-2-yl)amino)-trans-cyclohexanol], the “median subjective score of c-Jun” value ([1]; 75 mg QD x 6 days) is reported as 3, the “odds ratio, c-Jun scores 0, 1, 2 vs. scores 3, 4 (logistic regression)” value ([1]; 75 mg vs. placebo) is reported as 3.69 and the “median subjective score of c-Jun” value ([1]; 200 mg QD x 6 days) is reported as 2. For the same compound, the “frequency of high c-Jun subjective scores” value ([1]; 200 mg vs placebo) was “fewer subjects had high cJun scores; also recorded: fewer patients had high scores”, the “odds ratio, c-Jun scores 0, 1, 2 vs. scores 3, 4 (logistic regression)” value ([1]; 200 mg vs. placebo) was 9.30 and the “c-Jun immunostaining, percentage of positive epithelial nuclei, Patient 15” value ([1]; versus placebo) was “significantly decreased”. For the same compound, the “UVB-induced JNK activation (phospho-c-Jun level), in words” value ([2]; EpiDermFT, 0.1, 3, 10 μM) was “strongly Inhibits; also recorded: significantly blocks”, the “inhibition of phospho-Stat3” value ([2]; EpiDermFT, 30 minutes post UV, data not shown) was “minimal” and the IC50 ([2]; Homo sapiens, light or radiation study, 0.5 h, EpiDermFT, UVB 135 mJ/cm^2, lysed 30 minutes after UV, read-out: IC50 for p-cJun) was 100 to 3000 nM.
